Test results from patent US9695155B2, “Herbicidal substituted pyrimidinyloxy benzene compounds” (E. I. DU PONT DE NEMOURS AND COMPANY, priority 2013, dated 2017).

Key:
Experiment in all cases: Test F preemergence
Settings in all cases: 21 days, scale 0 to 100
chickweed = format: in vivo, Stellaria media
Description: (§1) Seeds of plant species selected from bermudagrass (Cynodon dactylon), surinam grass (Brachiaria decumbens), large (Lg) crabgrass (Digitaria sanguinalis), crabgrass, naked (naked crabgrass, Digitaria nuda), foxtail, green (green foxtail, Setaria viridis), johnsongrass (Sorghum halepense), kochia (Kochia scoparia), morningglory (pitted morningglory, Ipomoea lacunosa), nutsedge, purple (purple nutsedge, Cyperus rotundus), ragweed (common ragweed, Ambrosia elatior), mustard, black (black mustard, Brassica nigra), guineagrass (Panicum maximum), dallisgrass (Paspalum dilatatum), barnyardgrass (Echinochloa crus-galli), sandbur (southern sandbur, Cenchrus echinatus), sowthistle (common sowthistle, Sonchus oleraceous), Italian ryegrass (Lolium multiflorum), signalgrass (broadleaf signalgrass, Brachiaria platyphylla), dayflower (Virginia (VA) dayflower, Commelina virginica), bluegrass (annual bluegrass, Poa annua), quackgrass (Elytrigia repens), mallow (common mallow, Malva sylvestris), buckwheat, wild (wild buckwheat, Polygonum convolvulus), leafy spurge (Euphorbia esula), chickweed (common chickweed, Stellaria media), wild poinsettia (Euphorbia heterophylla), and pigweed (Amaranthus retroflexus) were planted into a blend of loam soil and sand and treated preemergence with test chemicals formulated in a non-phytotoxic solvent mixture which included a surfactant.
(§2) Treated plants and controls were maintained in a greenhouse for 21 days, after which time all species were compared to controls and visually evaluated. Plant response ratings, summarized in Table F, are based on a scale of 0 to 100 where 0 is no effect and 100 is complete control. A dash (-) response means no test result.

wild poinsettia = format: in vivo, Euphorbia heterophylla
Description: as §1, §2

barnyardgrass = format: in vivo, Echinochloa crus-galli
Description: as §1, §2

surinam grass = format: in vivo, Brachiaria decumbens
Description: as §1, §2

guineagrass = format: in vivo, Panicum maximum
Description: as §1, §2

| Compound | Plant response rating, Chickweed (chickweed; 16 g ai/ha) | Plant response rating, Chickweed (chickweed; 31 g ai/ha) | Plant response rating, Chickweed (chickweed; 62 g ai/ha) | Plant response rating, Chickweed (chickweed; 125 g ai/ha) | Plant response rating, Chickweed (chickweed; 250 g ai/ha) | Plant response rating, Poinsettia, Wild (wild poinsettia; 16 g ai/ha) | Plant response rating, Poinsettia, Wild (wild poinsettia; 31 g ai/ha) | Plant response rating, Poinsettia, Wild (wild poinsettia; 62 g ai/ha) | Plant response rating, Poinsettia, Wild (wild poinsettia; 125 g ai/ha) | Plant response rating, Poinsettia, Wild (wild poinsettia; 250 g ai/ha) | Plant response rating, Barnyardgrass (barnyardgrass; 16 g ai/ha) | Plant response rating, Barnyardgrass (barnyardgrass; 31 g ai/ha) | Plant response rating, Barnyardgrass (barnyardgrass; 62 g ai/ha) | Plant response rating, Barnyardgrass (barnyardgrass; 125 g ai/ha) | Plant response rating, Barnyardgrass (barnyardgrass; 250 g ai/ha) | Plant response rating, Surinam Grass (surinam grass; 16 g ai/ha) | Plant response rating, Surinam Grass (surinam grass; 31 g ai/ha) | Plant response rating, Surinam Grass (surinam grass; 62 g ai/ha) | Plant response rating, Surinam Grass (surinam grass; 125 g ai/ha) | Plant response rating, Surinam Grass (surinam grass; 250 g ai/ha) | other results |
| --- | --- | --- | --- | --- | --- | --- | --- | --- | --- | --- | --- | --- | --- | --- | --- | --- | --- | --- | --- | --- | --- |
| N#Cc1cccc(Oc2ncc(Cl)cn2)c1-n1cc(OC(F)F)cn1 [Compound 97] | 100 | 100 | 100 | 100 | 100 | 10 | 20 | 75 | 98 | 98 | 0 | 90 | 95 | 100 | 100 | 0 | 10 | 50 | 90 | 100 | Plant response rating, Guineagrass (guineagrass; 16 g ai/ha): 100; Plant response rating, Guineagrass (guineagrass; 31 g ai/ha): 100; Plant response rating, Guineagrass (guineagrass; 62 g ai/ha): 100; Plant response rating, Guineagrass (guineagrass; 125 g ai/ha): 100; Plant response rating, Guineagrass (guineagrass; 250 g ai/ha): 100 |
| N#Cc1cccc(Oc2ncc(F)cn2)c1-n1cc(C(F)(F)F)cn1 [Compound 79, 3-[(5-fluoro-2-pyrimidinyl)oxy]-2-[4-(trifluoromethyl)-1H-pyrazol-1-yl]benzonitrile] | 98 | 100 | 100 | 100 | 100 | 50 | 85 | 98 | 100 | 100 | 75 | 100 | 100 | 100 | 100 | 75 | 90 | 95 | 100 | 100 | Plant response rating, Guineagrass (guineagrass; 16 g ai/ha): 100; Plant response rating, Guineagrass (guineagrass; 31 g ai/ha): 100; Plant response rating, Guineagrass (guineagrass; 62 g ai/ha): 100; Plant response rating, Guineagrass (guineagrass; 125 g ai/ha): 100; Plant response rating, Guineagrass (guineagrass; 250 g ai/ha): 100 |
